Here are results for three molecules from US12578336B2, “ATP detection” (Promega Corporation, priority 2022, dated 2026).

Assay [1] addresses T1, Pp-apyrase (Phlebotomus papatasi, UniProt Q9GTP7).
T1 construct: GST (glutathione S transferase); made in house; host or cells: E. coli
Description: Inactivation of Pp-apyrase by EGTA in cell lysis/ATP detection reagent, tube format. The class given is biochemical. As to conditions: 10 mM EGTA in cell lysis/ATP detection reagent. As for the experimental part: Luminescent signals were measured over time starting immediately after addition of the lysis/ATP detection reagent. Reactions were performed in microcentrifuge-style tubes and analyzed for luminescence on a single tube reading luminometer (GloMax® 20/20, Promega Corp.).
Reactions were performed in microcentrifuge-style tubes and analyzed for luminescence on a single tube reading luminometer (GloMax® 20/20, Promega Corp.).

Another assay concerns the target T2, ENPP1 (Homo sapiens, UniProt P22413).
T2 sequence (P22413 1-925): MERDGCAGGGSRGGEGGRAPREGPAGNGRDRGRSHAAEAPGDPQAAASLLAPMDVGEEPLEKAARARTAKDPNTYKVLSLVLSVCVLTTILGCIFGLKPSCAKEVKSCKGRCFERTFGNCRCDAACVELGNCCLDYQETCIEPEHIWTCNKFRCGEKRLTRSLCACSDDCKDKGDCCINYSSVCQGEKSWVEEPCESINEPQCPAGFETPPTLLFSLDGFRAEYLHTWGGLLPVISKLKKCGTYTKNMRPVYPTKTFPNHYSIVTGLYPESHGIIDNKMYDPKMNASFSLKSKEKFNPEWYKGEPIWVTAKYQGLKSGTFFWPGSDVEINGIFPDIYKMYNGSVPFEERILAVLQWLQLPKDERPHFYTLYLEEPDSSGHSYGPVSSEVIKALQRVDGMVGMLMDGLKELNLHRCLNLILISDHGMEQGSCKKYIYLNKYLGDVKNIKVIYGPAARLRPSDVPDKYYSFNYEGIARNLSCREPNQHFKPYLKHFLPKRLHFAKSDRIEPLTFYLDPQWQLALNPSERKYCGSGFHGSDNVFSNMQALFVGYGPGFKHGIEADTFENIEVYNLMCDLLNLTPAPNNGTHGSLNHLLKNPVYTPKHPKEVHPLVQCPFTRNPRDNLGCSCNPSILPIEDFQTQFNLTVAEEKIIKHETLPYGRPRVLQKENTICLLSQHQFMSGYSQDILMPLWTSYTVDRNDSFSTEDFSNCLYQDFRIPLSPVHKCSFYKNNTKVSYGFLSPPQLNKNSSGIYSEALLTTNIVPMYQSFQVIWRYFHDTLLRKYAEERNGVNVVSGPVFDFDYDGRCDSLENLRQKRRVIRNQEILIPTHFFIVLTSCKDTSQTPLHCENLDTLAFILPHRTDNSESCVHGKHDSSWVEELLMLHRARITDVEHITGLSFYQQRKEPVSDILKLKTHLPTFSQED
Description: ENPP1 ATP degradation and its inhibition by chelators/inhibitor, Kinase-Glo. The class given is biochemical. As for the experimental part: ENPP1 converts ATP to AMP and pyrophosphate, is zinc-dependent, and is inactivated by EGTA, by the zinc chelator N,N,N′,N′-Tetrakis (2 pyridylmethyl) ethylenediamine (TPEN), and by certain small molecule inhibitors.
ENPP1 (100 ng/reaction) was incubated with 10 μM ATP and varying amounts of chelators (EGTA, TPEN) or an ENPP1 selective inhibitor called inhibitor C in a reaction buffer containing 50 mM Tris HCl, pH 7.5, 250 mM NaCl, 5 uM ZnCl2, 0.1 mg/ml BSA. The reactions were allowed to proceed for 60 minutes.

The target of the next assay is T3, Cl-apyrase (Ca-apyrase) (Cimex lectularius, UniProt O96559).
T3 construct: His tag; made in house; host or cells: E. coli
Description: Inhibition of Cl-apyrase by EGTA, luminescence over time. The class given is biochemical. The note with it: EGTA present; decline of luminescence over time. The source says:
(§1) The Ca^2+/Mg^2+ apyrase from potato, Solanum tuberosum (St-apyrase), is the most commonly used apyrase for ATP elimination. However, its inactivation requires measures, such as high temperature or extreme pH treatment, which are incompatible with the simple cartridge design disclosed here. The need for an extended heating time for apyrase inactivation is also incompatible with the goal of rapid sample collection and analysis. […] Cl- and St-apyrase were compared for their capacity to remove extracellular ATP and to be inhibited by the Ca^2+-selective chelator EGTA. Mg^2+ is critical for luciferase activity so the Mg^2+-selective chelator EDTA was not tested. In the absence of EGTA, both enzymes eliminated ATP as indicated by a time-dependent decrease in luminescence (FIG. 3).

The target of assay [2] is T1, Pp-apyrase. The experiment in a line: Inhibition of Pp-apyrase by EGTA in cartridge format. The class given is biochemical. As to conditions: EGTA in lysis/ATP detection reagent, after an initial ATP elimination step. As for the experimental part:
Apyrase from the sandfly Phlebotomus papatasi (Pp-apyrase) was also characterized for use in an exemplary cartridge format. […] Empty plastic cartridges were obtained from Empire Bio Diagnostics. […] 20 second exposures of ATP in swab tips were followed by immersion of the swab tips in the cartridge receptacle in the ATP detection/cell lysis formulation with 10 mM EGTA described for FIG. 6, and then insertion of the cartridge receptacle in a handheld luminometer (luminometer prototype by Empire Bio Diagnostics). […] A portion of the values shown above the vertical axis represent luminescent values too low to be visible as bars on the graph.

The test system of assay [3] is St-apyrase (Ca2+/Mg2+ apyrase from potato). The experiment in a line: Inhibition of St-apyrase by EGTA, luminescence over time. The class given is biochemical, Solanum tuberosum. As to conditions: same amount of EGTA; luminescence declined over time.
Source text: as §1

“Also recorded” adds a separate entry of the source.

T1 sequence (Q9GTP7 22-336 limits assumed): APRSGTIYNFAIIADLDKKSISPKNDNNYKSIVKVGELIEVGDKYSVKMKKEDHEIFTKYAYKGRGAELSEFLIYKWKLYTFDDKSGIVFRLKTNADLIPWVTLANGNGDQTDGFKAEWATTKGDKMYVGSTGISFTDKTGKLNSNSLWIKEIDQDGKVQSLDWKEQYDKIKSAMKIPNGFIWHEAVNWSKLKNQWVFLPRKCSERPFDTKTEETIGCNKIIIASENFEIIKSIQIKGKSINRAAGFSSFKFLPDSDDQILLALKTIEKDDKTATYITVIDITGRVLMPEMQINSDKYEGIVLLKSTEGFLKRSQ
T3 sequence (O96559 36-364 limits assumed): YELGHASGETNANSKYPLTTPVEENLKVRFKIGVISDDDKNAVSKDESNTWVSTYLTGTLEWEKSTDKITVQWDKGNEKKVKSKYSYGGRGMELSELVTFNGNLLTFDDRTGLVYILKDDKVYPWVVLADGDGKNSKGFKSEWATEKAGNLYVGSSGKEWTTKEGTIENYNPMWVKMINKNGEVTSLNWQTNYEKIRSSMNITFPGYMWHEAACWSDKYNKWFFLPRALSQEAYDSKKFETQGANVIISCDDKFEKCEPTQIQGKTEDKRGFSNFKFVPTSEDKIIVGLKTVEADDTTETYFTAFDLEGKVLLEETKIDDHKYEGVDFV

In the case of `O=C(O)CN(CCOCCOCCN(CC(=O)O)CC(=O)O)CC(=O)O` [EGTA], the “inactivation of Pp-apyrase (in words)” value on Pp-apyrase [1] is reported as “effectively inactivated; also recorded: substantially inactivated”. On ENPP1, the “inactivation of ENPP1 (in words)” value is given as “inactivated”. The “Cl-apyrase activity in the presence of EGTA (in words)” value at Cl-apyrase (Ca-apyrase) is listed as “no Cl-apyrase activity was detected; also recorded: substantially inactivated”. Further, on Pp-apyrase [2], the “inhibition of Pp-apyrase in cartridge format (in words)” value was “effective”. Also, the “St-apyrase inhibition in the presence of EGTA (in words)” value in assay [3] is “only partially inhibited”.
In the case of `c1ccc(CN(CCN(Cc2ccccn2)Cc2ccccn2)Cc2ccccn2)nc1` [TPEN, N,N,N′,N′-Tetrakis (2 pyridylmethyl) ethylenediamine], the “inactivation of ENPP1 (in words)” value on ENPP1 was “inactivated”.

B1: ENPP1: zinc-dependent enzyme that converts ATP to AMP and pyrophosphate (protein, UniProt P22413 1-925, looked up)
Ectonucleotide …: MERDGCAGGGSRGGEGGRAPREGPAGNGRDRGRSHAAEAPGDPQAAASLLAPMDVGEEPLEKAARARTAKDPNTYKVLSLVLSVCVLTTILGCIFGLKPSCAKEVKSCKGRCFERTFGNCRCDAACVELGNCCLDYQETCIEPEHIWTCNKFRCGEKRLTRSLCACSDDCKDKGDCCINYSSVCQGEKSWVEEPCESINEPQCPAGFETPPTLLFSLDGFRAEYLHTWGGLLPVISKLKKCGTYTKNMRPVYPTKTFPNHYSIVTGLYPESHGIIDNKMYDPKMNASFSLKSKEKFNPEWYKGEPIWVTAKYQGLKSGTFFWPGSDVEINGIFPDIYKMYNGSVPFEERILAVLQWLQLPKDERPHFYTLYLEEPDSSGHSYGPVSSEVIKALQRVDGMVGMLMDGLKELNLHRCLNLILISDHGMEQGSCKKYIYLNKYLGDVKNIKVIYGPAARLRPSDVPDKYYSFNYEGIARNLSCREPNQHFKPYLKHFLPKRLHFAKSDRIEPLTFYLDPQWQLALNPSERKYCGSGFHGSDNVFSNMQALFVGYGPGFKHGIEADTFENIEVYNLMCDLLNLTPAPNNGTHGSLNHLLKNPVYTPKHPKEVHPLVQCPFTRNPRDNLGCSCNPSILPIEDFQTQFNLTVAEEKIIKHETLPYGRPRVLQKENTICLLSQHQFMSGYSQDILMPLWTSYTVDRNDSFSTEDFSNCLYQDFRIPLSPVHKCSFYKNNTKVSYGFLSPPQLNKNSSGIYSEALLTTNIVPMYQSFQVIWRYFHDTLLRKYAEERNGVNVVSGPVFDFDYDGRCDSLENLRQKRRVIRNQEILIPTHFFIVLTSCKDTSQTPLHCENLDTLAFILPHRTDNSESCVHGKHDSSWVEELLMLHRARITDVEHITGLSFYQQRKEPVSDILKLKTHLPTFSQED
Regarding B1, the “conditionally active ATP eliminating properties (in words)” value with ENPP1 (ENPP1 100 ng/reaction, 10 μM ATP, 60 minutes, 5 uM ZnCl2) was “qualitatively demonstrated the conditionally active ATP eliminating properties”.
